One data set addresses T1, Amyloid β protein 1-40 (Homo sapiens, UniProt P05067).
T1 construct: Amyloid β protein 1-40 (bought from Peptide Laboratory); purchased Peptide Laboratory
The data set is described as follows: Fluorescence Congo Red Method. The class given is binding. The note with it: 1 h, compound 10 μM, amyloid β protein 5 μM.

In data set [1] the test system is histidine-requiring Salmonella typhimurium TA100 and TA98 strains. The data set is described as follows: Mutagenicity Test (reverse mutation test). For Relative Activity in the presence of S9Mix: key: minus: The number of colonies after reverse mutation did not increase at least two times that of the negative control. The settings on record: for Relative Activity in the presence of S9Mix / Relative Activity in the absence of S9Mix: reverse mutation test. The class given is cell-based. In short, it runs like this:
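Preincubation reverse-mutation test in S. typhimurium TA100 and TA98, with and without S9mix, 20 min at 37° C, then 48 h at 37° C on minimal glucose agar. Six doses (common ratio 2) in DMSO, top dose 5000 μg/plate or growth-inhibiting dose. Revertant colonies counted; positive at ≥2-fold over DMSO control with dose dependency or reproducibility.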

The nature of data set [2]: Brain Permeability Test Through HPLC. The data set is classed as in vivo. The note with it: mice, 2 minutes after intravenous administration. The method, then:
A compound of the invention was intravenously administered to mice, and tested for its in-vivo brain permeability in the mice.
(1) Slc:ICR mice (by Nippon SLC) (body weight, 30 to 40 g; n=3) were used.
(2) A test compound was dissolved in a mixture of 5% Tween 80-5% ethyl alcohol-5% 1 N HCl-physiological saline water, and injected into the test mouse via its tail vein. Two minutes after the administration, the blood was collected from the test mouse under ether anesthesia via its abdominal aorta using a heparin-steeped syringe, and the brain material was collected from it.
(3) After collected, the blood was centrifuged at 4° C. and 14,000 rpm for 10 minutes, and the supernatant was stored at −80° C. as plasma. After collected, the brain material (including the cerebellum) was stored at −80° C.
(4) 0.3 ml of acetonitrile was added to 0.1 ml of the plasma, then vortexed, and centrifuged at 4° C. and under 10,000 G for 5 minutes. After centrifuged, 0.2 ml of the resulting supernatant was transferred into Mini-Uniprep (Whatman), then 0.2 ml of 20 mM phosphate buffer was added to it and filtered. 0.2 ml of the resulting filtrate was analyzed through HPLC (Shiseido Nanospace SI-2; pump, 3001; UV-VIS detector, 3002; column thermostat, 3004; fluorescence detector, 3013).
(5) 2 ml of methanol was added to the brain, homogenized, and centrifuged at 4° C. and 3000 or 4000 rpm for 10 minutes. After centrifuged, 500 μl of the resulting supernatant was diluted 10-fold with 20 mM phosphate buffer. (i) 2 to 3 ml of acetonitrile, (ii) 2 to 5 ml of methanol and (iii) 4 to 6 ml of ultra-pure water were led through a cartridge for solid-phase extraction (J. T. Baker Speedisk) in that order, and the 10-fold diluted supernatant solution was led through it. Via an empty syringe, air was applied to the cartridge for solid-phase extraction, two or three times to remove water, and then this was eluted with about 500 μl of acetonitrile or methanol, and the eluate was diluted 2-fold with 20 mM phosphate buffer. 0.2 ml of the resulting solution was analyzed through HPLC.
(6) The test compound content in the plasma and in the brain was determined relative to the dose of the compound (% ID (injected dose)/g or ml).

The mark [3] stands for this setting: Congo red 0.1 μM, read-out: Binding Percentage of Compound in the presence of 0.1 μM CR.
Where [4] appears, read: Congo red 0.3 μM, read-out: Binding Percentage of Compound in the presence of 0.3 μM CR.
Setting [5] is: Congo red 1 μM, read-out: Binding Percentage of Compound in the presence of 1 μM CR.
[6] abbreviates: irrespective of the absence or presence of S9mix.

Like-named read-outs stand apart in the source and are kept apart here.

T1 sequence (P05067 672-711): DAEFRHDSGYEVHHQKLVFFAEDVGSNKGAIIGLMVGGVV

With `CN(C)c1ncc(/C=C/c2nc3ccc(OC(CO)CF)cc3o2)s1` (stereo not drawn) [THK-763, (E)-6-[(1-fluoromethyl-2-hydroxy)ethoxy]-2-[2-[2-dimethylamino-thiazol-5-yl]ethenyl]benzoxazole], the activity at 10 µM is 54.7% on Amyloid β protein 1-40 (setting [3]), 22.9% on Amyloid β protein 1-40 (setting [4]) and 7.5% at Amyloid β protein 1-40 (setting [5]). The “Relative activity (mutagenicity)” value in data set [1] (in the presence of S9mix) is “weak”. Further, the “Relative Activity in the presence of S9Mix” value in data set [1] is “minus”. For the same compound, the “Relative Activity in the absence of S9Mix” value in data set [1] is on record as 3058.
Regarding `OCC(CF)Oc1ccc2nc(/C=C/c3cnc(N4CCOCC4)s3)oc2c1` (stereo not drawn) [THK-702, (E)-2-[2-(2-morpholinothiazol-5-yl)ethenyl]-6-[(1-fluoromethyl-2-hydroxy)ethoxy]-benzoxazole], the activity at 10 µM at Amyloid β protein 1-40 (setting [3]) amounted to 74.9%. Moreover, the activity at 10 µM at Amyloid β protein 1-40 (setting [4]) came out at 37.3%. The activity at 10 µM on Amyloid β protein 1-40 (setting [5]) amounted to 0.8%. In data set [2], the “Brain Permeability: Brain” value is listed as 5.1 % ID/g or ml and the “Brain Permeability: Plasma” value is recorded as 2.7 % ID/g or ml. Further, in data set [1] (setting [6]), the “Relative activity (mutagenicity)” value is recorded as “minus”. For the same compound, in data set [1], the “Relative Activity in the presence of S9Mix” value is on record as “minus” and the “Relative Activity in the absence of S9Mix” value is given as “minus”.
For `CNc1ncc(/C=C/c2nc3ccc(OC(CO)CF)cc3o2)s1` (stereo not drawn) [THK-761, (E)-6-[(1-fluoromethyl-2-hydroxy)ethoxy]-2-[2-[2-methylaminothiazol-5-yl]ethenyl]-benzoxazole], the activity at 10 µM is 55.2% at Amyloid β protein 1-40 (setting [3]), 21.6% on Amyloid β protein 1-40 (setting [4]) and 7% on Amyloid β protein 1-40 (setting [5]). In addition, the “Relative activity (mutagenicity)” value in data set [1] (in the presence of S9mix) is given as “weak”. Further, the “Relative Activity in the presence of S9Mix” value in data set [1] is “minus”. Also, the “Relative Activity in the absence of S9Mix” value in data set [1] was 11995.
As for `OCC(CF)Oc1ccc2nc(/C=C/c3cnc(N4CCCC4)s3)oc2c1` (stereo not drawn) [THK-752, (E)-6-[(1-fluoromethyl-2-hydroxy)ethoxy]-2-[2-[2-(pyrrolidin-1-yl)-thiazol-5-yl]ethenyl]benzoxazole], the activity at 10 µM was determined as 50.4% on Amyloid β protein 1-40 (setting [3]), 20.6% on Amyloid β protein 1-40 (setting [4]) and 11.3% at Amyloid β protein 1-40 (setting [5]). In data set [2], the “Brain Permeability: Brain” value is given as 6.7 % ID/g or ml. For the same compound, the “Brain Permeability: Plasma” value in data set [2] was 1.9 % ID/g or ml. For the same compound, the “Relative activity (mutagenicity)” value in data set [1] (setting [6]) was “minus”. The “Relative Activity in the presence of S9Mix” value in data set [1] is given as “minus”. The “Relative Activity in the absence of S9Mix” value in data set [1] is reported as “minus”.
For the compound `FCCOc1ccc2nc(/C=C/c3cnc(N4CCOCC4)s3)oc2c1` [THK-525, 6-(2-fluoro-ethoxy)-2-[2-(2-morpholin-4-yl-thiazol-5-yl)-vinyl]-benzoxazole], on Amyloid β protein 1-40 (setting [3]), the activity at 10 µM amounted to 61.4%. Further, the activity at 10 µM at Amyloid β protein 1-40 (setting [4]) was 24.1%. The activity at 10 µM at Amyloid β protein 1-40 (setting [5]) is -6.4%. In addition, in data set [2], the “Brain Permeability: Brain” value is given as 7.9 % ID/g or ml and the “Brain Permeability: Plasma” value is on record as 3.1 % ID/g or ml. In addition, the “Relative activity (mutagenicity)” value in data set [1] (setting [6]) is “minus”. Further, in data set [1], the “Relative Activity in the presence of S9Mix” value was “minus” and the “Relative Activity in the absence of S9Mix” value is on record as “minus”.

The record behind these values is US7910579B2, “Benzoxazole derivatives” (Tohoku University, priority 2006, dated 2011).
